{"source": "patent US20050101595A1", "about": "“N-containing cycloalkyl-substituted amino-thiazole derivatives and pharmaceutical compositions for inhibiting cell proliferation and methods for their use” (PFIZER INC., priority 2003, published 2005)", "key": {"[1]": {"test_system": "HCT-116 cell line", "assay": "Inhibition of cell growth, tetrazolium salt (MTT) assay", "assay_type": "cell-based", "settings": "for IC50: Homo sapiens, HCT-116, 120 h, MTT, three to five days, read-out: HCT-116 IC50; for HCT-116 % Inhibition at 0.25 μM: 0.25 μM compound", "how_it_was_run": "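Cells in McCoy's 5A medium were left 4 h, then given graded compound concentrations in 0.5% (v/v) DMSO and incubated three to five days at 37° C (5% CO2). MTT was added to 0.2 mg/mL for 4 h more; DMSO-solubilized formazan was read at 540 nm against 0.5% DMSO-only controls.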"}, "[2]": {"molecular_target": "CDK2/Cyclin A (Homo sapiens, UniProt P24941)", "assay": "Inhibition of CDK2/Cyclin A Retinoblastoma Kinase Activity", "assay_type": "biochemical", "settings": "for Ki: apparent Ki, CDK2/proteolyzed cyclin A, Rb fragment substrate, 25 μM ATP", "how_it_was_run": "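Human CDK2, baculovirus/insect-cell expressed, complexed with proteolyzed cyclin A (10 nM or 19 nM CDK2) phosphorylates an Rb fragment with 25 μM [32P/33P]ATP at pH 7.4, 30° C, for 60 or 75 minutes under initial-rate conditions. Filter-captured radioactivity is read by phosphorimager; apparent Ki from competitive-inhibition fits.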"}, "[3]": {"molecular_target": "human CDK4 and genetically truncated (1-264) cyclin D3 (Homo sapiens, UniProt P11802)", "sequence (P11802 whole entry, the tested form may be a part)": "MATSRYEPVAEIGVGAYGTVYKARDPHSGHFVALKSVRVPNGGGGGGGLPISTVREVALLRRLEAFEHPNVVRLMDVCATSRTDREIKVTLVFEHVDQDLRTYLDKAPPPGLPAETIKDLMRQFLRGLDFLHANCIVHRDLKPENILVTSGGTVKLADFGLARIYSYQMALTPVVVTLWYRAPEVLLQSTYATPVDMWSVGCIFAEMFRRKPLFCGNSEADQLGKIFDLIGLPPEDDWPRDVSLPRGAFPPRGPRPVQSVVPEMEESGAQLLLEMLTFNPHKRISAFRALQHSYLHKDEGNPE", "sequence (P30281 1-264 partner)": "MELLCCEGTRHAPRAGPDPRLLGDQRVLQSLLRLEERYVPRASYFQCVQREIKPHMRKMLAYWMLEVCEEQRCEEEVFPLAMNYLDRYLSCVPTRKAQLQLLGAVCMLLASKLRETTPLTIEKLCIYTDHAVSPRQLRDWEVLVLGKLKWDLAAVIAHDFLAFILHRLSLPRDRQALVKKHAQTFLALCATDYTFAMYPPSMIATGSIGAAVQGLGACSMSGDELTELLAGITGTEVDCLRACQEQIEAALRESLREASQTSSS", "assay": "Inhibition of CDK4/Cyclin D Retinoblastoma Kinase Activity", "assay_type": "biochemical", "settings": "for Ki: apparent Ki, CDK4/truncated cyclin D3, Rb fragment substrate, 25 μM ATP", "how_it_was_run": "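Read-out: 32P/33P incorporation into Rb fragment (386-928) captured on nitrocellulose, phosphorimager. Enzyme 5 nM CDK4/cyclin D3(1-264) from insect cells; ATP 25 μM, pH 7.4, 30 °C, 20 min (60 min for tight binders). Ki from competitive fits.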"}, "[4]": {"settings": "0.1 μM compound, HCT-116, Table 4"}}, "note": "Structures can show the parent of a compound that is named as a salt. Where two headings read alike, the source gives them in different places.", "data": [{"compound": "CC(=O)Nc1ccc(S(=O)(=O)N2CCCC(Nc3nc(N)c(C(=O)c4c(F)cccc4F)s3)C2)cc1", "note": "(centres unmarked) [Example F36, N-(4-{3-[4-Amino-5-(2,6-difluoro-benzoyl)-thiazol-2-ylamino]-piperidine-1-sulfonyl}-phenyl)-acetamide]", "values": [{"measurement": "IC50", "setting": "[1]; first HCT-116 column (c4)", "result": "> 5000", "unit": "nM"}, {"measurement": "IC50", "setting": "[1]; second HCT-116 column (c5)", "result": "> 5000", "unit": "nM"}, {"measurement": "Ki", "setting": "[2]", "result": 480, "unit": "nM"}, {"measurement": "Ki", "setting": "[3]", "result": 780, "unit": "nM"}]}, {"compound": "COc1ccc(C)cc1NC(=O)N1CCC(Nc2nc(N)c(C(=O)c3c(F)cccc3F)s2)CC1", "note": "[Example O50]", "values": [{"measurement": "HCT-116 % Inhibition at 0.25 μM", "setting": "[1]; HCT-116, Table 2", "result": 62, "unit": "%"}, {"measurement": "CDK2 % Inhibition At 0.03 μM", "setting": "[2]; 0.03 μM compound, Table 2", "result": 37, "unit": "%"}, {"measurement": "CDK4 % Inhibition at 0.03 μM", "setting": "[3]; 0.03 μM compound, Table 2", "result": 13, "unit": "%"}]}, {"compound": "CC(C)(C)COC(=O)N1CCC(Nc2nc(N)c(C(=O)c3c(F)cccc3F)s2)CC1", "note": "[Example R88]", "values": [{"measurement": "HCT-116 % Inhibition at 0.1 μM", "setting": "[1]; HCT-116 cells, at 0.1 μM", "result": 0, "unit": "%"}, {"measurement": "HCT-116 5 Inhibition at 0.25 μM", "setting": "[1]; HCT-116 cells", "result": 42}, {"measurement": "CDK2 % Inhibition at 0.03 μM", "setting": "[2]; at 0.03 μM", "result": 6, "unit": "%"}, {"measurement": "CDK4 % Inhibition at 0.03 μM", "setting": "[3]; at 0.03 μM", "result": "−3", "unit": "%"}]}, {"compound": "Nc1nc(NC2CCN(C(=O)c3cccc(F)c3)CC2)sc1C(=O)c1c(F)cccc1F", "note": "[Example R130]", "values": [{"measurement": "HCT-116 % Inhibition at 0.1 μM", "setting": "[1]; HCT-116 cells, at 0.1 μM", "result": 0, "unit": "%"}, {"measurement": "HCT-116 5 Inhibition at 0.25 μM", "setting": "[1]; HCT-116 cells", "result": 20}, {"measurement": "CDK2 % Inhibition at 0.03 μM", "setting": "[2]; at 0.03 μM", "result": 59, "unit": "%"}, {"measurement": "CDK4 % Inhibition at 0.03 μM", "setting": "[3]; at 0.03 μM", "result": 77, "unit": "%"}]}, {"compound": "CCOC(=O)N1CCC(Nc2nc(N)c(C(=O)c3c(F)cccc3F)s2)CC1", "note": "[Example Q8]", "values": [{"measurement": "HCT-116 % Inhibition at 0.1 μM", "setting": "[1]; [4]", "result": 6, "unit": "%"}, {"measurement": "HCT-116 % Inhibition at 0.25 μM", "setting": "[1]; HCT-116, Table 4", "result": 45, "unit": "%"}, {"measurement": "CDK2 % Inhibition at 0.03 μM", "setting": "[2]; 0.03 μM compound, Table 4", "result": "−13", "unit": "%"}, {"measurement": "CDK4 % Inhibition at 0.03 μM", "setting": "[3]; 0.03 μM compound, Table 4", "result": 15, "unit": "%"}]}, {"compound": "Nc1nc(NC2CCN(S(=O)(=O)c3ccc(CCN4CCCC4)nc3)CC2)sc1C(=O)c1c(F)cccc1F", "note": "[Example N2, (4-Amino-2-{1-[6-(2-pyrrolidin-1-yl-ethyl)-pyridine-3-sulfonyl]-piperidin-4-ylamino}-thiazol-5-yl)-(2,6-difluoro-phenyl)-methanone Hydrochloride Salt.]", "values": [{"measurement": "IC50", "setting": "[1]; first HCT-116 column (c4)", "result": 230, "unit": "nM"}, {"measurement": "IC50", "setting": "[1]; second HCT-116 column (c5)", "result": "> 500", "unit": "nM"}, {"measurement": "Ki", "setting": "[2]", "result": 1.2, "unit": "nM"}, {"measurement": "Ki", "setting": "[3]", "result": 0.49, "unit": "nM"}]}, {"compound": "COc1cc(OC)cc(C(=O)N2CCC(Nc3nc(N)c(C(=O)c4c(F)cccc4F)s3)CC2)c1", "note": "[Example Q23]", "values": [{"measurement": "HCT-116 % Inhibition at 0.1 μM", "setting": "[1]; [4]", "result": 10, "unit": "%"}, {"measurement": "HCT-116 % Inhibition at 0.25 μM", "setting": "[1]; HCT-116, Table 4", "result": 42, "unit": "%"}, {"measurement": "CDK2 % Inhibition at 0.03 μM", "setting": "[2]; 0.03 μM compound, Table 4", "result": 20, "unit": "%"}, {"measurement": "CDK4 % Inhibition at 0.03 μM", "setting": "[3]; 0.03 μM compound, Table 4", "result": 56, "unit": "%"}]}, {"compound": "Cc1noc(C)c1S(=O)(=O)N1CCC(Nc2nc(N)c(C(=O)c3c(F)cccc3F)s2)CC1", "note": "[Example F1]", "values": [{"measurement": "IC50", "setting": "[1]; first HCT-116 column (c4)", "result": 1400, "unit": "nM"}, {"measurement": "IC50", "setting": "[1]; second HCT-116 column (c5)", "result": 4500, "unit": "nM"}, {"measurement": "Ki", "setting": "[2]", "result": 12, "unit": "nM"}, {"measurement": "Ki", "setting": "[3]", "result": 14, "unit": "nM"}]}, {"compound": "Nc1nc(NC2CCN(C(=O)OCc3ccc([N+](=O)[O-])cc3)CC2)sc1C(=O)c1c(F)cccc1F", "note": "[Example Q85]", "values": [{"measurement": "HCT-116 % Inhibition at 0.1 μM", "setting": "[1]; [4]", "result": 1, "unit": "%"}, {"measurement": "HCT-116 % Inhibition at 0.25 μM", "setting": "[1]; HCT-116, Table 4", "result": 31, "unit": "%"}, {"measurement": "CDK2 % Inhibition at 0.03 μM", "setting": "[2]; 0.03 μM compound, Table 4", "result": 42, "unit": "%"}, {"measurement": "CDK4 % Inhibition at 0.03 μM", "setting": "[3]; 0.03 μM compound, Table 4", "result": 55, "unit": "%"}]}, {"compound": "CN(C)CCOc1ccc(S(=O)(=O)N2CCC(Nc3nc(N)c(C(=O)c4c(Cl)cccc4Cl)s3)CC2)cn1", "note": "[Example H17, 1-(4-Amino-2-{1-[6-(2-dimethylamino-ethoxy)-pyridine-3-sulfonyl]-piperidin-4-ylamino}-thiazol-5-yl)-1-(2,6-dichloro-phenyl)-methanone Hydrochloride Salt]", "values": [{"measurement": "IC50", "setting": "[1]; first HCT-116 column (c4)", "result": 50, "unit": "nM"}, {"measurement": "IC50", "setting": "[1]; second HCT-116 column (c5)", "result": 170, "unit": "nM"}, {"measurement": "Ki", "setting": "[2]", "result": 1.8, "unit": "nM"}, {"measurement": "Ki", "setting": "[3]", "result": 1.7, "unit": "nM"}]}, {"compound": "Nc1nc(NC2CCN(C(=O)c3ccccc3-c3ccccc3)CC2)sc1C(=O)c1c(F)cccc1F", "note": "[Example R123]", "values": [{"measurement": "HCT-116 % Inhibition at 0.1 μM", "setting": "[1]; HCT-116 cells, at 0.1 μM", "result": 0, "unit": "%"}, {"measurement": "HCT-116 5 Inhibition at 0.25 μM", "setting": "[1]; HCT-116 cells", "result": 38}, {"measurement": "CDK2 % Inhibition at 0.03 μM", "setting": "[2]; at 0.03 μM", "result": 5, "unit": "%"}, {"measurement": "CDK4 % Inhibition at 0.03 μM", "setting": "[3]; at 0.03 μM", "result": 39, "unit": "%"}]}, {"compound": "CN1CCCC(Oc2ccc(S(=O)(=O)N3CCC(Nc4nc(N)c(C(=O)c5c(F)cccc5F)s4)CC3)cn2)C1", "note": "(centres unmarked) [Example H16, 1-(4-Amino-2-{1-[6-(1-methyl-piperidin-3RS-yloxy)-pyridin-3-sulfonyl]-piperidin-4-ylamino}-thiazol-5-yl)-1-(2,6-difluoro-phenyl)-methanone Hydrochloride]", "values": [{"measurement": "IC50", "setting": "[1]; first HCT-116 column (c4)", "result": 57, "unit": "nM"}, {"measurement": "IC50", "setting": "[1]; second HCT-116 column (c5)", "result": 500, "unit": "nM"}, {"measurement": "Ki", "setting": "[2]", "result": 0.48, "unit": "nM"}, {"measurement": "Ki", "setting": "[3]", "result": 0.28, "unit": "nM"}]}, {"compound": "Nc1nc(NC2CCN(S(=O)(=O)c3ccc4ccccc4c3)CC2)sc1C(=O)c1c(F)cccc1F", "note": "[Example P3]", "values": [{"measurement": "HCT-116 % Inhibition at 0.1 μM", "setting": "[1]; 0.1 μM compound, HCT-116, Table 3", "result": 17, "unit": "%"}, {"measurement": "HCT-116 % Inhibition at 0.25 μM", "setting": "[1]; HCT-116, Table 3", "result": 23, "unit": "%"}, {"measurement": "CDK2 % Inhibition at 0.03 μM", "setting": "[2]; 0.03 μM compound, Table 3", "result": 64, "unit": "%"}, {"measurement": "CDK4 % Inhibition at 0.03 μM", "setting": "[3]; 0.03 μM compound, Table 3", "result": 65, "unit": "%"}]}, {"compound": "Nc1nc(NC2CCN(S(=O)(=O)c3ccc(S)nc3)CC2)sc1C(=O)c1c(F)cccc1F", "note": "[Example L4, 1-{4-Amino-2-[1-(6-mercapto-pyridine-3-sulfonyl)-piperidin-4-ylamino]-thiazol-5-yl}-1-(2,6-difluoro-phenyl)-methanone Hydrochloride.]", "values": [{"measurement": "IC50", "setting": "[1]; first HCT-116 column (c4)", "result": "> 500", "unit": "nM"}, {"measurement": "IC50", "setting": "[1]; second HCT-116 column (c5)", "result": "> 500", "unit": "nM"}, {"measurement": "Ki", "setting": "[2]", "result": 0.3, "unit": "nM"}, {"measurement": "Ki", "setting": "[3]", "result": 1.8, "unit": "nM"}]}, {"compound": "COc1cc(C(=O)N2CCC(Nc3nc(N)c(C(=O)c4c(F)cccc4F)s3)CC2)cc(OC)c1OC", "note": "[Example Q22]", "values": [{"measurement": "HCT-116 % Inhibition at 0.1 μM", "setting": "[1]; [4]", "result": 16, "unit": "%"}, {"measurement": "HCT-116 % Inhibition at 0.25 μM", "setting": "[1]; HCT-116, Table 4", "result": 48, "unit": "%"}, {"measurement": "CDK2 % Inhibition at 0.03 μM", "setting": "[2]; 0.03 μM compound, Table 4", "result": 24, "unit": "%"}, {"measurement": "CDK4 % Inhibition at 0.03 μM", "setting": "[3]; 0.03 μM compound, Table 4", "result": 73, "unit": "%"}]}]}
